We go through 15 compounds from US20110281812A1, “Compounds” (priority 2009, published 2011).

For this assay, the system named is IL-6 production in LPS-stimulated murine spleenocytes. The experiment in a line: Inhibition of IL-6 production in LPS-stimulated murine spleenocytes in vitro. The format is cell-based. To be noted: Mus musculus, 50 μM concentration of the compound, read-out: inhibition of interleukin-6 (IL-6) production. As for the experimental part:
Test and reference substances used in an in vitro assays were dissolved in dimethyl sulfoxide (DMSO) (Sigma Chemical Co., USA) at a concentration of 50 mM and were further diluted to test concentrations in appropriate cell culture medium.
After cervical dislocation, mouse spleens were removed using sterile dissection tools. Spleens were transferred to a pre-wetted cell strainer in a 50 mL sterile conical tube and cell suspension was made by gentle puddle. Cells were centrifuged (20 min, 300×g) and resuspended in 2 mL of sterile phosphate buffered saline (PBS) (Sigma Chemical Co., USA). Red blood cells were lysed by addition of 3 mL of sterile water and occasionally gentle shaking for 1 minute. Afterwards, the tube was filled to 40 mL with DMEM medium and centrifuged (20 min, 300×g). Cells were resuspended in DMEM supplemented with 1% FBS and seeded in a 24-well plate, 1×10^6 cells per mL medium.
Final concentrations of 50 μM, 25 μM, 12.5 μM, 6.3 μM and 3.1 μM of test compounds were prepared by diluting a 50 mM DMSO stock in Dulbecco's modified Eagle medium (DMEM) (Gibco, USA) supplemented with 1% heat inactivated fetal bovine serum (FBS) (BioWest, Ringmer, United Kingdom).
Cells were pre-incubated with the test compounds for 3 h at 37° C., in an atmosphere of 5% CO2 and 90% humidity. Afterwards, cells were stimulated with 1 μg/mL lipopolysaccharide (LPS, E. coli 0111:B4, Sigma Chemical Co., USA) and incubated overnight. Concentration of IL-6 was determined in cell supernatants by sandwich ELISA using capture and detection antibodies (R&D Systems, USA) according to the manufacturer's recommendations.
Inhibition (as percentage) was calculated using the following formula:
% inhibition=[1−(concentration of IL-6 in sample−concentration of IL-6 in negative control)/(concentration of IL-6 in positive control−concentration of IL-6 in negative control)]×100.
The positive control refers to LPS-stimulated samples that were not preincubated with the compounds.
The negative control refers to unstimulated and untreated samples.

The structures appear in SMILES notation.

In the case of `CC[C@H]1OC(=O)[C@H](C)[C@@H](O[C@H]2C[C@@](C)(OC)[C@@H](O)[C@H](C)O2)[C@H](C)[C@@H](O[C@@H]2O[C@H](C)C[C@H](N(C)C)[C@H]2OCCCNC(C)=O)[C@](C)(O)C[C@@H](C)CN(C)[C@H](C)[C@@H](O)[C@]1(C)O` [Example 1, 2′-O[3-(Acetylamino)propyl]-9-deoxo-9a-methyl-9a-aza-9a-homoerythromycin A], the inhibition at 50 µM was > 40%. Take `CC[C@H]1OC(=O)[C@H](C)[C@@H](O[C@H]2C[C@@](C)(OC)[C@@H](O)[C@H](C)O2)[C@H](C)[C@@H](O[C@@H]2O[C@H](C)C[C@H](N(C)C)[C@H]2OCCCNC(=O)C(C)C)[C@](C)(O)C[C@@H](C)CN(C)[C@H](C)[C@@H](O)[C@]1(C)O` [Example 3, 2′-O-{3-[(2-Methylpropanoyl)amino]propyl}-9-deoxo-9a-methyl-9a-aza-9a-homoerythromycin A]: the inhibition at 50 µM is > 40%. The result for `CC[C@H]1OC(=O)[C@H](C)[C@@H](O[C@H]2C[C@@](C)(OC)[C@@H](O)[C@H](C)O2)[C@H](C)[C@@H](O[C@@H]2O[C@H](C)C[C@H](N(C)C)[C@H]2OCCCNC(=O)C(C)(C)C)[C@](C)(O)C[C@@H](C)CN(C)[C@H](C)[C@@H](O)[C@]1(C)O` [Example 4, 2′-O-{3-[(2,2-Dimethylpropanoyl)amino]propyl}-9-deoxo-9a-methyl-9a-aza-9a-homoerythromycin A] reads > 40%; that for `CC[C@H]1OC(=O)[C@H](C)[C@@H](O[C@H]2C[C@@](C)(OC)[C@@H](O)[C@H](C)O2)[C@H](C)[C@@H](O[C@@H]2O[C@H](C)C[C@H](N(C)C)[C@H]2OCCCNC(=O)CN(CC)CC)[C@](C)(O)C[C@@H](C)CN(C)[C@H](C)[C@@H](O)[C@]1(C)O` [Example 5, 2′-O-{3-[(N,N-Diethylglycyl)amino]propyl}-9-deoxo-9a-methyl-9a-aza-9a-homoerythromycin A], > 40%.

For `CC[C@H]1OC(=O)[C@H](C)[C@@H](O[C@H]2C[C@@](C)(OC)[C@@H](O)[C@H](C)O2)[C@H](C)[C@@H](O[C@@H]2O[C@H](C)C[C@H](N(C)C)[C@H]2OCCCNC(=O)c2ccncc2)[C@](C)(O)C[C@@H](C)CN(C)[C@H](C)[C@@H](O)[C@]1(C)O` [Example 6, 2′-O-{3-[(4-Pyridinylcarbonyl)amino]propyl}-9-deoxo-9a-methyl-9a-aza-9a-homoerythromycin A], the inhibition at 50 µM is > 40%. The result for `CC[C@H]1OC(=O)[C@H](C)[C@@H](O[C@H]2C[C@@](C)(OC)[C@@H](O)[C@H](C)O2)[C@H](C)[C@@H](O[C@@H]2O[C@H](C)C[C@H](N(C)C)[C@H]2OCCCNC(=O)[C@@H](N)Cc2ccccc2)[C@](C)(O)C[C@@H](C)CN(C)[C@H](C)[C@@H](O)[C@]1(C)O` [Example 10, 2′-O-[3-(L-phenylalanylamino)propyl]-9-deoxo-9a-methyl-9a-aza-9a-homoerythromycin A] reads > 40%; that for `CC[C@H](C)[C@H](N)C(=O)NCCCO[C@H]1[C@H](O[C@@H]2[C@@H](C)[C@H](O[C@H]3C[C@@](C)(OC)[C@@H](O)[C@H](C)O3)[C@@H](C)C(=O)O[C@H](CC)[C@@](C)(O)[C@H](O)[C@@H](C)N(C)C[C@H](C)C[C@@]2(C)O)O[C@H](C)C[C@@H]1N(C)C` [Example 11, 2′-O-[3-(L-isoleucylamino)propyl]-9-deoxo-9a-methyl-9a-aza-9a-homoerythromycin A], > 40%; that for `CC[C@H]1OC(=O)[C@H](C)[C@@H](O[C@H]2C[C@@](C)(OC)[C@@H](O)[C@H](C)O2)[C@H](C)[C@@H](O[C@@H]2O[C@H](C)C[C@H](N(C)C)[C@H]2OCCCNC(=O)[C@@H](N)CCSC)[C@](C)(O)C[C@@H](C)CN(C)[C@H](C)[C@@H](O)[C@]1(C)O` [Example 12, 2′-O-[3-(L-methionylamino)propyl]-9-deoxo-9a-methyl-9a-aza-9a-homoerythromycin A], > 40%.

For `CC[C@H]1OC(=O)[C@H](C)[C@@H](O[C@H]2C[C@@](C)(OC)[C@@H](O)[C@H](C)O2)[C@H](C)[C@@H](O[C@@H]2O[C@H](C)C[C@H](N(C)C)[C@H]2OCCCNC(=O)c2cnccn2)[C@](C)(O)C[C@@H](C)CN(C)[C@H](C)[C@@H](O)[C@]1(C)O` [Example 23, 2′-O-{3-[(2-Pyrazinylcarbonyl)amino]propyl}-9-deoxo-9a-methyl-9a-aza-9a-homoerythromycin A], the inhibition at 50 µM is > 40%. Then `CC[C@H]1OC(=O)[C@H](C)[C@@H](O[C@H]2C[C@@](C)(OC)[C@@H](O)[C@H](C)O2)[C@H](C)[C@@H](O[C@@H]2O[C@H](C)C[C@H](N(C)C)[C@H]2OCCCNC(=O)c2cc(C)oc2C)[C@](C)(O)C[C@@H](C)CN(C)[C@H](C)[C@@H](O)[C@]1(C)O` [Example 24, 2′-O-(3-{[(2,5-Dimethyl-3-furanyl)carbonyl]amino}propyl)-9-deoxo-9a-methyl-9a-aza-9a-homoerythromycin A], with > 40%. The result for `CC[C@H]1OC(=O)[C@H](C)[C@@H](O[C@H]2C[C@@](C)(OC)[C@@H](O)[C@H](C)O2)[C@H](C)[C@@H](O[C@@H]2O[C@H](C)C[C@H](N(C)C)[C@H]2OCCCNC(=O)c2cc(C)n(C)c2C)[C@](C)(O)C[C@@H](C)CN(C)[C@H](C)[C@@H](O)[C@]1(C)O` [Example 26, 2′-O-(3-{[(1,2,5-Trimethyl-1H-pyrrol-3-yl)carbonyl]amino}propyl)-9-deoxo-9a-methyl-9a-aza-9a-homoerythromycin A] reads > 40%. Then `CC[C@H]1OC(=O)[C@H](C)[C@@H](O[C@H]2C[C@@](C)(OC)[C@@H](O)[C@H](C)O2)[C@H](C)[C@@H](O[C@@H]2O[C@H](C)C[C@H](N(C)C)[C@H]2OCCCNC(=O)c2cncn2C)[C@](C)(O)C[C@@H](C)CN(C)[C@H](C)[C@@H](O)[C@]1(C)O` [Example 27, 2′-O-(3-{[(1-Methyl-1H-imidazol-5-yl)carbonyl]amino}propyl)-9-deoxo-9a-methyl-9a-aza-9a-homoerythromycin A], with > 40%. As to `CC[C@H]1OC(=O)[C@H](C)[C@@H](O[C@H]2C[C@@](C)(OC)[C@@H](O)[C@H](C)O2)[C@H](C)[C@@H](O[C@@H]2O[C@H](C)C[C@H](N(C)C)[C@H]2OCCCNC(=O)c2cn(C)nc2C(F)(F)F)[C@](C)(O)C[C@@H](C)CN(C)[C@H](C)[C@@H](O)[C@]1(C)O` [Example 28, 2′-O-[3-({[1-Methyl-3-(trifluoromethyl)-1H-pyrazol-4-yl]carbonyl}amino)propyl]-9-deoxo-9a-methyl-9a-aza-9a-homoerythromycin A], the inhibition at 50 µM was > 40%.

Take `CC[C@H]1OC(=O)[C@H](C)[C@@H](O[C@H]2C[C@@](C)(OC)[C@@H](O)[C@H](C)O2)[C@H](C)[C@@H](O[C@@H]2O[C@H](C)C[C@H](N(C)C)[C@H]2OCCCNC(=O)c2ccc(Cl)cc2)[C@](C)(O)C[C@@H](C)CN(C)[C@H](C)[C@@H](O)[C@]1(C)O` [Example 29, 2′-O-(3-{[(4-Chlorophenyl)carbonyl]amino}propyl)-9-deoxo-9a-methyl-9a-aza-9a-homoerythromycin A]: the inhibition at 50 µM was > 40%. Regarding `CC[C@H]1OC(=O)[C@H](C)[C@@H](O[C@H]2C[C@@](C)(OC)[C@@H](O)[C@H](C)O2)[C@H](C)[C@@H](O[C@@H]2O[C@H](C)C[C@H](N(C)C)[C@H]2OCCCNC(=O)c2ccccn2)[C@](C)(O)C[C@@H](C)CN(C)[C@H](C)[C@@H](O)[C@]1(C)O` [Example 31, 2′-O-{3-[(2-Pyridinylcarbonyl)amino]propyl}-9-deoxo-9a-methyl-9a-aza-9a-homoerythromycin A], the inhibition at 50 µM was > 40%.

In general, inhibition refers to the relative decrease from the control value, in per cent.
